What was measured:
ECHCG (Barnyardgrass) = assay: Postemergence herbicidal evaluation; format: in vivo, Echinochloa crus-galli; details: postemergence
Procedure, shortened: (§1)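 Compound is applied as a foliar spray to seedlings about two weeks old, formulated in equal parts acetone and water with 0.5% TWEEN 20 and delivered at 40 psi to give about 0.0156–0.500 kg per hectare. Injury is rated visually 0–9 after four to five weeks.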

CYPSE (Flatsedge) = assay: Postemergence weed control under flooded paddy conditions; format: in vivo, Cyperus serotinus; details: postemergence weeds, rated 3 to 4 weeks after treatment
Procedure, shortened: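 Injury ratings (0–9 scale covering stand, vigor, malformation, size, chlorosis and overall appearance versus control) were made three to four weeks after treatment. Test material, about 0.0313 to 0.500 kg/ha a.i. in 50/50 v/v aqueous/acetone, was added to flood water 1.5 to 3 cm deep over 3 to 5 cm weeds and 1.5 to 2.5 leaf rice.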

SETVI (Foxtail, Green) = assay: Preemergence herbicidal evaluation; format: in vivo, Setaria viridis; details: preemergence, rated 4-5 weeks after treatment, 0-9 scale
Procedure, shortened: (§2)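 Each species is sown separately in potting soil over roughly an inch of soil before any emergence. The soil surface then receives an aqueous acetone spray delivering about 0.0156 to 0.500 kg/ha of compound. After four to five weeks, injury is scored from 0 to 9 relative to a control.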

CYPIR (Rice Flatsedge) = assay: Preemergence weed control under flooded paddy conditions; format: in vivo, Cyperus iria; details: rated 3-4 weeks after treatment
Procedure, shortened: (§3)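 Visual injury scored 0-9 against control three to four weeks post-treatment, greenhouse-grown. Application: acetone/water (50/50) solutions dosed directly into flood water (1.5-3 cm over silt loam, planted top 0.5 cm), roughly 0.0313 to 0.500 kg/ha active ingredient.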

ORYSAT (Rice, Tebonnet) [1] = assay: Preemergence herbicidal evaluation; format: in vivo, Oryza sativa, (L.) Tebonnet; details: preemergence, rated 4-5 weeks after treatment, 0-9 scale
Procedure, shortened: as §2

ORYSAT (Rice, Tebonnet) [2] = assay: Postemergence herbicidal evaluation; format: in vivo, Oryza sativa, (L.) Tebonnet; details: postemergence
Procedure, shortened: as §1

[3] = test system: CHEAL (Lambsquarters, Common); assay: Postemergence herbicidal evaluation; format: in vivo, Chenopodium album; details: postemergence
Procedure, shortened: as §1

GALAP (Galium) = assay: Preemergence herbicidal evaluation; format: in vivo, Galium aparine; details: preemergence, rated 4-5 weeks after treatment, 0-9 scale
Procedure, shortened: as §2

MOOVA (Monochoria) = assay: Preemergence weed control under flooded paddy conditions; format: in vivo, Monochoria vaginalis; details: rated 3-4 weeks after treatment
Procedure, shortened: as §3

[4] = test system: TRZAWR (Wheat, Winter, cv Riband); assay: Preemergence herbicidal evaluation; format: in vivo, Triticum aestivum; details: preemergence, rated 4-5 weeks after treatment, 0-9 scale
Procedure, shortened: as §2

[5] = test system: GLXMAW (Soybean, Williams); assay: Preemergence herbicidal evaluation; format: in vivo, Glycine max, (L.) Merr. cv Williams; details: preemergence, rated 4-5 weeks after treatment, 0-9 scale
Procedure, shortened: as §2

[6] = test system: SAGPY (Arrowhead (Pygmaea)); assay: Preemergence weed control under flooded paddy conditions; format: in vivo, Sagittaria pygmaea; details: rated 3-4 weeks after treatment
Procedure, shortened: as §3

ZEAMX (Corn, Field) = assay: Preemergence herbicidal evaluation; format: in vivo, Zea mays; details: preemergence, rated 4-5 weeks after treatment, 0-9 scale
Procedure, shortened: as §2

CASOB (Sicklepod) = assay: Postemergence herbicidal evaluation; format: in vivo, Cassia obtusifolia; details: postemergence
Procedure, shortened: as §1

## CCOC(=O)CN1C(=O)C(CC(=O)NS(=O)(=O)CC)SC1=Nc1cc(-n2c(=O)cc(C(F)(F)F)n(C)c2=O)c(F)cc1Cl (centres unmarked) [Compound 103, Ethyl 2-{{2-chloro-5-[3,6-dihydro-3-methyl-2,6-dioxo-4-(trifluoromethyl)-1(2H)-pyrimidinyl]-4-fluorophenyl}imino}-5-{[(ethylsulfonyl)carbamoyl]-methyl}-4-oxo-3-thiazolidineacetate]
ECHCG (Barnyardgrass); rate 0.0156 kg/ha
  herbicidal rating ECHCG: 3.0
ECHCG (Barnyardgrass); rate 0.0313 kg/ha
  herbicidal rating ECHCG: 9.0
ECHCG (Barnyardgrass); rate 0.0625 kg/ha
  herbicidal rating ECHCG: 9.0
ECHCG (Barnyardgrass); rate 0.1250 kg/ha
  herbicidal rating ECHCG: 9.0
CYPSE (Flatsedge); Rate 0.0313 kg/ha
  Herbicidal rating CYPSE: 5.0
CYPSE (Flatsedge); Rate 0.0625 kg/ha
  Herbicidal rating CYPSE: 5.0
CYPSE (Flatsedge); Rate 0.1250 kg/ha
  Herbicidal rating CYPSE: 6.0
CYPSE (Flatsedge); Rate 0.2500 kg/ha
  Herbicidal rating CYPSE: 6.0
SETVI (Foxtail, Green); 0.0313 kg/ha
  SETVI rating: 0.0
SETVI (Foxtail, Green); 0.0625 kg/ha
  SETVI rating: 0.0
SETVI (Foxtail, Green); 0.1250 kg/ha
  SETVI rating: 3.0
SETVI (Foxtail, Green); 0.2500 kg/ha
  SETVI rating: 3.0
SETVI (Foxtail, Green); 0.5000 kg/ha
  SETVI rating: 9.0
CYPIR (Rice Flatsedge); 0.0313 kg/ha
  CYPIR herbicidal effect rating: 4.0
CYPIR (Rice Flatsedge); 0.0625 kg/ha
  CYPIR herbicidal effect rating: 6.0
CYPIR (Rice Flatsedge); 0.1250 kg/ha
  CYPIR herbicidal effect rating: 9.0
CYPIR (Rice Flatsedge); 0.2500 kg/ha
  CYPIR herbicidal effect rating: 9.0
ORYSAT (Rice, Tebonnet) [1]; 0.0313 kg/ha
  ORYSAT rating: 0.0
ORYSAT (Rice, Tebonnet) [1]; 0.0625 kg/ha
  ORYSAT rating: 0.0
ORYSAT (Rice, Tebonnet) [1]; 0.1250 kg/ha
  ORYSAT rating: 0.0
ORYSAT (Rice, Tebonnet) [1]; 0.2500 kg/ha
  ORYSAT rating: 0.0
ORYSAT (Rice, Tebonnet) [1]; 0.5000 kg/ha
  ORYSAT rating: 2.0
ORYSAT (Rice, Tebonnet) [2]; rate 0.0156 kg/ha
  herbicidal rating ORYSAT: 1.5
ORYSAT (Rice, Tebonnet) [2]; rate 0.0313 kg/ha
  herbicidal rating ORYSAT: 2.0
ORYSAT (Rice, Tebonnet) [2]; rate 0.0625 kg/ha
  herbicidal rating ORYSAT: 2.5
ORYSAT (Rice, Tebonnet) [2]; rate 0.1250 kg/ha
  herbicidal rating ORYSAT: 3.5
[3]; rate 0.0156 kg/ha
  herbicidal rating CHEAL: 3.0
[3]; rate 0.0313 kg/ha
  herbicidal rating CHEAL: 3.0
[3]; rate 0.0625 kg/ha
  herbicidal rating CHEAL: 5.0
[3]; rate 0.1250 kg/ha
  herbicidal rating CHEAL: 9.0
GALAP (Galium); 0.0313 kg/ha
  GALAP rating: 0.0
GALAP (Galium); 0.0625 kg/ha
  GALAP rating: 0.0
GALAP (Galium); 0.1250 kg/ha
  GALAP rating: 0.0
GALAP (Galium); 0.2500 kg/ha
  GALAP rating: 0.0
GALAP (Galium); 0.5000 kg/ha
  GALAP rating: 7.0
MOOVA (Monochoria); 0.0313 kg/ha
  MOOVA herbicidal effect rating: 5.0
MOOVA (Monochoria); 0.0625 kg/ha
  MOOVA herbicidal effect rating: 7.0
MOOVA (Monochoria); 0.1250 kg/ha
  MOOVA herbicidal effect rating: 9.0
MOOVA (Monochoria); 0.2500 kg/ha
  MOOVA herbicidal effect rating: 9.0
[4]; 0.0313 kg/ha
  TRZAWR rating: 0.0
[4]; 0.0625 kg/ha
  TRZAWR rating: 0.0
[4]; 0.1250 kg/ha
  TRZAWR rating: 0.0
[4]; 0.2500 kg/ha
  TRZAWR rating: 0.0
[4]; 0.5000 kg/ha
  TRZAWR rating: 1.0
[5]; 0.0313 kg/ha
  GLXMAW rating: 0.0
[5]; 0.0625 kg/ha
  GLXMAW rating: 0.0
[5]; 0.1250 kg/ha
  GLXMAW rating: 0.0
[5]; 0.2500 kg/ha
  GLXMAW rating: 0.0
[5]; 0.5000 kg/ha
  GLXMAW rating: 3.0
[6]; 0.0313 kg/ha
  SAGPY herbicidal effect rating: 7.0
[6]; 0.0625 kg/ha
  SAGPY herbicidal effect rating: 9.0
[6]; 0.1250 kg/ha
  SAGPY herbicidal effect rating: 9.0
[6]; 0.2500 kg/ha
  SAGPY herbicidal effect rating: 9.0
ZEAMX (Corn, Field); 0.0313 kg/ha
  ZEAMX rating: 0.0
ZEAMX (Corn, Field); 0.0625 kg/ha
  ZEAMX rating: 0.0
ZEAMX (Corn, Field); 0.1250 kg/ha
  ZEAMX rating: 0.0
ZEAMX (Corn, Field); 0.2500 kg/ha
  ZEAMX rating: 0.0
ZEAMX (Corn, Field); 0.5000 kg/ha
  ZEAMX rating: 1.0
CASOB (Sicklepod); rate 0.0156 kg/ha
  herbicidal rating CASOB: 0.0
CASOB (Sicklepod); rate 0.0313 kg/ha
  herbicidal rating CASOB: 3.0
CASOB (Sicklepod); rate 0.0625 kg/ha
  herbicidal rating CASOB: 3.0
CASOB (Sicklepod); rate 0.1250 kg/ha
  herbicidal rating CASOB: 3.0

Source: patent publication US20020137929A1, “1 - (3-heterocyclylphenyl) isothiourea, -isourea, -guanidine and -amidine herbicidal agents” (Intellectual Property Department, BASF Aktiengesellschaft, priority 1998, published 2002)
